The text below walks through data of US20230123497A1, “NOVEL ANTIBACTERIAL HYDROGELS” (NewSouth Innovations Pty Limited, priority 2020, published 2023).

Series [1] in a line: Hydrogel formation, vial inversion test (critical gel concentration). The format is physicochemical. The settings on record: solvent switch.
Test in series [2]: as above
The format is physicochemical. Also on record: key: OG: opaque gel; P: precipitate. Particulars: solvent switch. From the text:
The simplest method to determine whether a suitable hydrogel has formed is to use the vial inversion test. Through visual inspection, a material can be categorised as a solution, viscous solution, partial gel, or solid-like gel. A stable hydrogel needs to be able to hold its weight and/or maintain its shape during this assessment.
The critical gel concentration (CGC) is defined as the minimum mass of a short peptide required to provide a self-supporting hydrogel per unit volume in the vial inversion test (measured as % w/v).
Pre-weighed samples of short peptide 4 were prepared in aluminium-covered glass vials and Milli-Q water and 2 equivalents of NaOH (1.0 M) were added to make up concentrations of 1% w/v. The resulting suspensions were vortexed for 5 minutes to provide clear yellow solutions with pH 11.
To create a high ionic strength environment, 1 equivalent of NaCl was added and the vial was left to stand without disturbance for 3 hours at room temperature. Meanwhile, as an attempt to form a hydrogel by lowering the pH, 2 equivalents of GdL were added to a high pH solution of 4 followed by gentle mixing. These vials were inverted and allowed to stand overnight to confirm the hydrogel formation.
The formation of hydrogel 4 via the solvent switch method was conducted by dissolving short peptide 4, in an aluminium covered glass vial, with either 50% methanol, ethanol, or dimethyl sulfoxide (DMSO). Respective amounts of Mili-Q water were added to make up concentrations of 1% w/v.
In addition, gelation time was defined as the time (hours) required for 1% w/v of short peptide 4 to form a hydrogel which can be turned upside down without collapsing.
Pre-weighed samples of short peptides 10a-17a, 18, and 19 were prepared in glass vials with 10 mm internal diameter, and Milli-Q water was added to make up concentrations of 1% w/v. The resulting suspensions of short peptides 13, 18, and 19 (as ammonium or guanidinium salts) were slowly warmed until all solid had completely dissolved. GdL (1.5 to 2.0 equivalents) was added to the suspension of short peptides 10a-17a, before heat was applied. To create a high ionic strength environment, 1-5 equivalents of NaCl was added to the viscous solution of 10a-17a to make the total volume up to 1 mL, followed by gentle mixing, and the vial was left to stand without disturbance for 3 hours at room temperature. Subsequently, these vials were inverted and allowed to stand overnight to confirm hydrogel formation.

A short description of series [3]: NO release from hydrogel 4 quantified with Griess reagent. The format is physicochemical. On the procedure: NO release from hydrogel 4 was quantified using the Griess reagent, which is an indirect method that measures collected nitrite as the primary degradation product of NO. Nitrobenzene-appended anthranilamide-based hydrogel 4 was pre-formed in an aluminium covered vial at 1% w/v (1 mL). Milli-Q water (1 mL) was carefully cast on top of the hydrogel, which was subsequently exposed to UV or blue light irradiation. At certain time points (0, 5, 15, 30, 60, and 120 min), the entire upper solutions were carefully removed and allowed to react with Griess reagent, according to the indication of the NO assay kit (Promega), to provide an azo compound that is responsible for providing the colorimetric assay. Subsequently, 1 mL of fresh Milli-Q water was immediately added to the top of hydrogel 4 for continuing the release.
Due to the strong absorbance of hydrogel 4 in the UV range, NO release was triggered by using a UV lamp (λ=356 nm). The same volume of Milli-Q water was placed on top of hydrogel 4, which was irradiated with UV light for 2 hours. The entire solution, on top of the hydrogel, was removed and replaced with the same amount of Milli-Q water periodically. The resulting solutions were reacted with Griess reagent. Any NO generated during the experiment would react with oxygen to generate nitrite ion (NO2^−). The subsequent reaction between NO2^− with Griess reagent, which contains sulfanilamide and N-(1-naphthyl)ethylenediamine (NED), will form a bright pink azo-dye compound that can be quantified using UV-Vis spectroscopy, as shown in the below scheme: […]

The next series relates to HEK 293T cells. Description: Cytotoxicity, Alamar Blue colorimetric assay. The format is cell-based. On the procedure: Cytotoxicity measurements were performed using an Alamar Blue colorimetric assay. Each experiment was repeated at least three times. Cells were passaged using standard cell culture procedures. Cells were detached with trypsin and centrifuged (1000 rpm for 3 min). The supernatant was removed and the cells re-suspended in Dulbecco's Modified Eagle Medium (DMEM) at a concentration of 100,000 cells per mL. Cells were seeded at a concentration of 6,000 cells per well. For cytotoxicity measurements, […] of hydrogel made from short-peptide 4 (at 1% w/v and 2% w/v) and short peptides 11, 12, 13, and 16 (at 0.3, 0.6, and 1.0% w/v) were added in triplicate to a 96-well plate and allowed to set overnight. Surrounding wells were supplemented with water to ensure hydration of the gels. Gels were then incubated for 24 h with DMEM. Cells were seeded atop the hydrogels and incubated for 24 hours, before […] of Alamar Blue was added to the wells, followed by further incubation for 4 h. Control wells included cell-free gels, no hydrogels and a negative control of 15% (v/v) DMSO. The absorbances at 570 nm and 596 nm were recorded using a BioRad Benchmark plate reader.
(Resazurin is reduced to fluorescent resorufin, in cell work by metabolically active cells.)

The next series deals with S. aureus 38. Description: Microdilution MBC of released fibers versus free compound. The format is cell-based, Staphylococcus aureus. How it is done:
To confirm their antibacterial efficacy, the released fibers from day 1 and day 9 were subjected to a standard microdilution protocol.
To further investigate their antibacterial activity, the released fibers from hydrogel 11 were tested against S. aureus 38. The solutions sampled from day 1 and day 9 were adjusted to obtained final concentrations of […]. Then, 100 μL of these solutions were transferred to a 96 well plate. […] 100 μL of each of these peptide solutions was also transferred to a 96 well plate.
Subsequently, 100 μL of a bacteria solution, adjusted to 10^6 CFUs/mL was added to each well. Two controls were used: one containing 100 μL of LB and 100 μL of PBS, and the other containing 100 μL of bacteria solution and 100 μL of PBS. The plate was then incubated at 37° C. for 24 hours. The following day, 20 μL solution from each well was subjected to a serial dilution then transferred onto agar plates followed by incubation at 37° C. for another 24 hours. MBC value was determined as the lowest concentration that inhibited S. aureus growth on the agar plate.
A general note: Broth dilution looks for growth in wells or tubes with falling amounts of substance.

Each structure is given as a SMILES string. Where only a bound is given, the exact number is not on record here.

Consider `O=C(Nc1ccccc1C(=O)N[C@@H](Cc1ccccc1)C(=O)N[C@@H](Cc1ccccc1)C(=O)O)c1ccc([N+](=O)[O-])c(C(F)(F)F)c1` [Compound 4, (2-(4-Nitro-3-(trifluoromethyl)benzamido)benzoyl)-L-phenylalanyl-L-phenylalanine], for which the “Time (gelation time)” value in series [1] (DMSO 5 % v/v) and in series [1] (MeOH 5 % v/v) was “Immed” each time. The “Remarks (gel state)” value in series [2] (DMSO 5 % v/v) is recorded as “P”; in series [2] (DMSO 50 % v/v), “OG”; in series [2] (EtOH 5 % v/v), “P”; in series [2] (EtOH 50 % v/v), “OG”; in series [2] (MeOH 5 % v/v) it was “P”; in series [2] (MeOH 50 % v/v), “OG”. Besides, the NO detected in series [3] (hydrogel 1% w/v, UV light (λ=356 nm), 5 minutes) is 1 µM. The molecule further returned an NO generated in series [3] (hydrogel 1% w/v, UV light (λ=356 nm), 30 minutes) of 7 µM. Moreover, the NO recovered in series [3] (hydrogel 1% w/v, UV light, 2 hours) was 61%. Besides, the “irradiation time required to generate NO concentration that can kill E. coli” value in series [3] (hydrogel 1% w/v, blue light) came to 1 h. Further, the “total NO recovered” value in series [3] (hydrogel 1% w/v, blue light, 2 hours) turned out to be 23%. Besides, in series [3] (no UV or blue light), the “NO release in the absence of triggers” value is listed as “does not leach NO”. Also, the cell viability entry in the series with HEK 293T cells (hydrogel 4 at 1% w/v, compared to the control) is recorded as “more than 90%”; with HEK 293T cells (hydrogel 4 at 2% w/v) it was “A similar result was observed”.
As to `NCCCNC(=O)[C@H](Cc1ccccc1)NC(=O)c1ccccc1NC(=O)c1ccc2ccccc2c1` [Compound 11], the MBC in the series on S. aureus 38 (Staphylococcus aureus, 38, fibers in solution released from hydrogel 11, S. aureus, 24 hours, read-out: minimum bactericidal concentration (MBC)) is 62 µM. In addition, the bacteria reduction in the series on S. aureus 38 (free compound (not hydrogel-formed) at 62 μM, S. aureus) was less than 1 Log10 CFU/mL.
